Results: ChEMBL document CHEMBL3272074, “A new class of diuretics with the 1,4-dioxino(2,3-g)quinolone structure” (J Med Chem, 1976)
Active and inactive are the calls of the source. No cut-off for these calls is given here.

Assays:
Rattus norvegicus [1] = experiment: Diuretic activity in po dosed albino Wistar-TNO rat assessed as 100% increase in urinary volume measured for 5 hrs; assay type: functional, Urine
Rattus norvegicus [2] = species on record: Rattus norvegicus; experiment: Ratio of furosemide ED200 to compound ED200 for diuretic activity in albino Wistar-TNO rat; assay type: functional, Urine
Rattus norvegicus [3] = experiment: Diuretic activity in po dosed albino Wistar-TNO rat assessed as rapid onset of action; assay type: functional, organism-based; settings: Urine
Rattus norvegicus [4] = experiment: Diuretic activity in po dosed albino Wistar-TNO rat assessed as time duration of action; assay type: functional, Urine
Rattus norvegicus [5] = experiment: Natriuretic activity in po dosed albino Wistar-TNO rat assessed as Na/K ratio; assay type: functional, organism-based
Rattus norvegicus [6] = species on record: Rattus norvegicus; experiment: Diuretic activity in experimentally-induced alkalosis rat model; assay type: functional, organism-based; settings: Urine
Rattus norvegicus [7] = species on record: Rattus norvegicus; experiment: Diuretic activity in experimentally-induced acidosis rat model; assay type: functional, organism-based; settings: Urine
Rattus norvegicus [8] = experiment: Diuretic activity in experimentally-induced oedema rat model; assay type: functional, organism-based; settings: Urine
Rattus norvegicus [9] = experiment: Diuretic activity in po dosed albino Wistar-TNO rat measured after chronic administration; assay type: functional, organism-based; settings: Urine
Rattus norvegicus [10] = experiment: Toxicity in po dosed albino Wistar-TNO rat at 50 times effective dose for diuresis measured after chronic administration; assay type: organism-based; settings: in vivo
Mus musculus = species on record: Mus musculus; experiment: Diuretic activity in mouse; assay type: functional, organism-based; settings: Urine
Hamster = experiment: Diuretic activity in hamster; assay type: functional, organism-based; settings: Cricetinae; Urine
Rhesus monkey = experiment: Diuretic activity in rhesus monkey; assay type: functional, organism-based; settings: Macaca mulatta; Urine
Canis familiaris = species on record: Canis familiaris; experiment: Natriuretic activity in non-loaded Beagle dog; assay type: functional, organism-based; settings: Canis lupus familiaris
Rattus norvegicus [11] = experiment: Diuretic activity in po dosed albino Wistar-TNO rat assessed as increase in urinary volume measured for 5 hrs; assay type: functional, organism-based; settings: Urine
Rattus norvegicus [12] = experiment: Toxicity in po dosed albino Wistar-TNO rat assessed as uric acid excretion; assay type: organism-based; settings: in vivo
Rattus norvegicus [13] = experiment: Diuretic activity in albino Wistar-TNO rat assessed as increase in urinary volume at 50 mg/kg, po measured for 5 hrs; assay type: functional, organism-based; design: dose 50 mg/kg; settings: Urine

## CCOCC1COc2c(cc3[nH]cc(C(=O)OCC)c(=O)c3c2Br)O1 (stereo not given)
Rattus norvegicus [1]
  ED200: 0.4 mg/kg

## CCOCC1COc2c(cc3[nH]cc(C(=O)OCC)c(=O)c3c2C(F)(F)F)O1 (stereo not given)
Rattus norvegicus [1]
  ED200: 0.5 mg/kg

## CCOCC1COc2c(cc3[nH]cc(C(=O)OCC)c(=O)c3c2Cl)O1 (stereo not given) [QUINCARBATE]
Rattus norvegicus [1]
  ED200: 0.08 mg/kg
Rattus norvegicus [2]
  Ratio: 200
Rattus norvegicus [3]
  Activity: Active
Rattus norvegicus [4]
  Time: 8 h
Rattus norvegicus [5]
  Activity: Active
Rattus norvegicus [6]
  Activity: Active
Rattus norvegicus [7]
  Activity: Active
Rattus norvegicus [8]
  Activity: Active
Rattus norvegicus [9]
  Activity: Active
Rattus norvegicus [10]
  Activity: Non-toxic
Mus musculus
  Activity: inactive
Hamster
  Activity: inactive
Rhesus monkey
  Activity: Active
Canis familiaris
  Activity: Active
Rattus norvegicus [11]
  Activity: Dose-dependent effect
Rattus norvegicus [12]
  Activity: Toxic

## CCOCC1COc2cc3c(=O)c(C(=O)OCC)c[nH]c3c(Cl)c2O1 (stereo not given)
Rattus norvegicus [13]
  Activity: inactive

## CCOCC1COc2c(c(Cl)c3[nH]cc(C(=O)OCC)c(=O)c3c2Cl)O1 (stereo not given)
Rattus norvegicus [13]
  Activity: inactive

## CCOCC1COc2cc3c(=O)c(C(=O)OCC)c[nH]c3cc2O1 (stereo not given)
Rattus norvegicus [1]
  ED200: 3.8 mg/kg

## NS(=O)(=O)c1cc2c(cc1Cl)N=CNS2(=O)=O [CHLOROTHIAZIDE]
Rattus norvegicus [1]
  ED200: 30 mg/kg
Rattus norvegicus [11]
  Activity: Dose-dependent effect

## CCOCC1COc2c(cc3[nH]cc(C(=O)OCC)c(=O)c3c2[N+](=O)[O-])O1 (stereo not given)
Rattus norvegicus [1]
  ED200: 3 mg/kg

## CCOCC1COc2c(cc3[nH]cc(C(=O)O)c(=O)c3c2Cl)O1 (stereo not given)
Rattus norvegicus [1]
  ED200: 0.14 mg/kg
Rattus norvegicus [2]
  Ratio: 200
Rattus norvegicus [3]
  Activity: Active
Rattus norvegicus [4]
  Time: 8 h
Rattus norvegicus [5]
  Activity: Active
Rattus norvegicus [6]
  Activity: Active
Rattus norvegicus [7]
  Activity: Active
Rattus norvegicus [8]
  Activity: Active
Rattus norvegicus [9]
  Activity: Active
Rattus norvegicus [10]
  Activity: Non-toxic
Mus musculus
  Activity: inactive
Hamster
  Activity: inactive
Rhesus monkey
  Activity: Active
Canis familiaris
  Activity: Active
Rattus norvegicus [11]
  Activity: Dose-dependent effect
Rattus norvegicus [12]
  Activity: Toxic

## CCOCC1COc2cc3[nH]cc(C(=O)OCC)c(=O)c3c(Cl)c2O1 (stereo not given)
Rattus norvegicus [1]
  ED200: 2.5 mg/kg

## NS(=O)(=O)c1cc(C(=O)O)c(NCc2ccco2)cc1Cl [FUROSEMIDE]
Rattus norvegicus [1]
  ED200: 28 mg/kg
Rattus norvegicus [11]
  Activity: Dose-dependent effect

## CCOCC1COc2cc3c(=S)c(C(=O)OCC)c[nH]c3cc2O1 (stereo not given)
Rattus norvegicus [1]
  ED200: 13 mg/kg

## CCOCC1COc2c(cc3[nH]cc(C(=O)OCC)c(=N)c3c2Cl)O1 (stereo not given)
Rattus norvegicus [1]
  ED200: 2 mg/kg
